# Results taken from patent US20250263457A1, “Pharmaceutical Composition for Preventing and Treating Liver Disease Comprising Novel Peptide” (Pusan National University Industry-University Cooperation …, priority 2024, published 2025).
# Assays:
# [1] = system: alcohol-related liver disease mouse model; assay: Triglyceride accumulation in liver tissue of alcohol-related liver disease mouse model; format: in vivo, C57BL/6 male mice; settings: 3.3 μg/kg i.p. every other day for three weeks
# Source text: (§1) To prepare alcohol-related liver disease mice, 8-week-old C57BL/6 male mice were fed with a Lieber DeCarli liquid diet (Dyets, 710260) containing 5% EtOH for 9 weeks, and then injected intraperitoneally with a vehicle (PBS) every other day along with feeding liquid diet for additional 3 weeks. As a control group for the EtOH diet, mice fed with a pair Lieber DeCarli liquid diet (Dyets, 710027) having the same total calories as the EtOH diet were used (FIG. 4A).
# Triglycerides in the liver tissue obtained by the method of Example 5.2 were measured using the following method.
# In addition, the accumulation of triglycerides in the liver tissue was confirmed using Oil red O staining.
# Specifically, the liver tissue extracted from the mice was embedded in OCT and frozen-stored at −80° C. The liver tissue embedded in OCT was cut into 6 μm-thick sections to produce tissue section slides and then fixed by treating 4% paraformaldehyde. The tissue section slides were washed with distilled water and treated with 100% propylene glycol ([…], Sigma-Aldrich), and triglycerides were stained with Oil Red O (Sigma-Aldrich). After staining, the section slides were washed with 60% PEG, and the nuclei were counterstained with hematoxylin. The liver tissue section slides produced as described above were observed under a microscope to confirm the accumulation of triglycerides in the liver tissue. […]
# human pHSCs = assay: RT-qPCR and Western blot of fibrosis/activation markers in human pHSCs; format: cell-based; settings: 40 ng/ml, 24 and 48 hours, vs control (FIGS. 3C, 3D)
# Experimental: In addition, after pHSCs were treated with peptide YJ for 24 and 48 hours by the same method as above, respectively, RNA and protein were extracted (whole lysate) and the expression of pHSCs activation markers was confirmed through RT-qPCR (FIG. 3C) and Western blot (FIG. 3D). Western blot was performed using the same method as in Example 2, and RNA extraction and RT-qPCR were performed as follows. At this time, human pHSCs treated with PBS were used as a control group.
# First, total RNA was extracted from each cell using a Trizol solution (Invitrogen, 15596-026), and then the concentration and purity of RNA were confirmed using a nanodrop. Thereafter, complementary DNA (cDNA) was synthesized using the RNA as a template using the SuperScript First-strand Synthesis System (Invitrogen, 18064014). The cDNA synthesized by the method was used as sample DNA in quantitative real-time PCR (qPCR).
# The quantitative real-time PCR (qPCR) was performed using Power SYBR Green Master Mix (Applied Biosystem), and the results were analyzed by a […] method. The qPCR results were analyzed for significance using Mean±SEM values of three independent experiments through one-way ANOVA followed by post hoc Tukey's test.
# CD44 = CD44 and CD44ICD expression in liver tissue of mouse model (IHC, Western blot); format: in vivo, C57BL/6 male mice; settings: 3.3 μg/kg i.p. every other day for three weeks
# Source text: as §1
# (§2) The alcohol-related liver disease mouse model established by the method of Example 5.1 was administered vehicle (PBS) or peptide YJ (3.3 μg/kg) intraperitoneally every other day for three weeks, and then blood was collected and liver tissue was extracted to confirm the liver disease treatment effect of peptide YJ.
# The expression of CD44 and CD44ICD in liver tissues extracted from the experimental mice of Example 5.3, or nuclear proteins or whole proteins (whole lysate) of liver tissues, was confirmed through immunohistochemical staining and Western blot. The immunohistochemical staining was performed using anti-CD44 antibody and anti-CD44ICD antibody by the method of Example 5.2.3, and Western blot was performed by the method of Examples 2 and 4.
# [2] = system: alcohol-related liver disease mouse model; assay: Inflammatory response (CD68, F4/80 immunohistochemistry) and alcohol metabolism/apoptosis markers (Western blot) in liver tissue of mouse model; format: in vivo, C57BL/6 male mice; settings: 3.3 μg/kg i.p. every other day for three weeks, vs vehicle
# Source text: as §1
# Specifically, the liver tissue extracted from the mouse was fixed by treating 10% neutral buffered formalin, and then embedded using paraffin. The liver tissue paraffin block was cut into 4 μm-thick sections to produce tissue section slides. After deparaffinization and hydration processes of the tissue section slides, 3% hydrogen peroxide was treated to block endogenous peroxidase. Then, the section slides were treated with 10 mM sodium citrate buffer (pH 6.0) and heated for 10 minutes or treated with 0.2% pepsin to induce antigen retrieval. To inhibit non-specific binding of antibodies, blocking (Dako, X9090) was performed, and then the primary antibodies were treated and reacted overnight at 4° C. At this time, the primary antibodies used were anti-CD68 antibody (Abcam, ab125212) and anti-F4/80 antibody (Abcam, ab6640). The section slides were washed with TBST and then treated with secondary antibodies and reacted. The secondary antibodies used were EnVision+ Single Reagents (HRP, Rabbit) (Dako, K4003) and Goat anti-rat IgG-heavy and light chain antibodies (HRP conjugated) (BETHYL, A110-105P). Thereafter, the section slides were washed with TBST and treated with 3,3′-diaminobenzidine (DAB) (Dako, K3466) to develop the color. After the color development, the tissues of the section slides were dehydrated, mounted, fixed, and then observed under a microscope.
# as §2
# The degree of inflammatory response in the liver tissue extracted from the experimental mice of Example 5.3 was confirmed in the same manner as in Example 5.3.2.
# In addition, the expression of alcohol metabolism markers and apoptosis marker proteins was confirmed through Western blot. Western blot was performed in the same manner as in Example 2. At this time, the primary antibodies used were anti-CYP2E1 antibody ([…], ab125212), anti-4HNE antibody (Abcam, ab46545), anti-cleaved caspase-3 antibody (Cell Signaling Technology, 9661s), anti-caspase-3 antibody (Cell Signaling Technology, 9662s), and anti-GADPH antibody.
# [3] = EtOH diet group, vs vehicle, Western blot (FIG. 8B)
# [4] = EtOH diet group, Western blot (FIG. 6F)
substance,measurement,setting,value
peptide YJ: TSG-6 fragment: core domain RSGKYKLTYAEAKA plus C-terminal extension VCEFEGGHLATYKQLEAARKIGFHVCAAGWMAK (SEQ ID NO: 9); TSG-6 mimetic (RSGKYKLTYAEAKAVCEFEGGHLATYKQLEAARKIGFHVCAAGWMAK; peptide 4),amount of triglycerides in the liver tissue,"[1]; EtOH diet group, vs vehicle (FIG. 6D)",significantly reduced
same,size and number of lipid droplet in the liver tissue,[1]; H&E staining (FIG. 6E),significantly reduced
same,expression of COL1α1,human pHSCs; RT-qPCR and Western blot,decreased
same,expression of CTGF,human pHSCs; RT-qPCR and Western blot,decreased
same,expression of TGF-β,human pHSCs; RT-qPCR and Western blot,decreased
same,expression of TIMP1,human pHSCs; RT-qPCR and Western blot,decreased
same,expression of α-SMA,human pHSCs; RT-qPCR and Western blot,decreased
same,expression of GFAP (inactivation marker of pHSCs),human pHSCs,increased
same,expression of CD44ICD in whole lysate of liver tissue,CD44; [3],reduced
same,expression of CD44 in whole lysate of liver tissue,CD44; [3],reduced
same,expression of CD44ICD in nuclear protein of liver tissue,"CD44; EtOH diet group, vs vehicle, Western blot (FIG. 8C)",significantly reduced
same,expression of CD44 in liver tissue,CD44; immunohistochemical staining (FIG. 8A),decreased
same,expression of CD68 in liver tissue,"[2]; EtOH diet group, IHC (FIG. 6E)",significantly reduced
same,expression of F4/80 in liver tissue,"[2]; EtOH diet group, IHC (FIG. 6E)",significantly reduced
same,expression of 4HNE in liver,[2]; [4],did not show a significant difference
same,expression of CYP2E1 in liver,[2]; [4],did not show a significant difference
same,expression of cleaved caspase-3 (apoptosis marker) in liver,[2]; Western blot (FIG. 6F),decreased
